Measured values as given in EP2140864A2 (H. Lundbeck A/S, priority 2001, dated 2002).
Read-outs that look alike come from different tables or passages of the source.

Columns and labels:
5HT transporter = 5HT transporter (Rattus norvegicus, UniProt P31652); assay: Binding at native 5HT transporter
Protocol: (§1) The binding properties of the compounds of the present invention were evaluated at one or more cloned receptors or native, tissue-derived transporters, using protocols described below.
(§2) The methods to determine binding affinity at native transporters are described in the following publications: 5HT transporter and NE transporter (Owens et al., 1997), and DA transporter (Javitch et al, 1984).
(§3) Binding data were analyzed using nonlinear regression and statistical techniques available in the GraphPAD Prism package (San Diego, CA). Enzymatic assay data were derived from a standard curve of reference compound data.

DA transporter = DA transporter (Rattus norvegicus, UniProt P23977); assay: Binding at native DA transporter
Protocol: as §1, §2, §3

human α2A adrenoceptor = target: T1, human α2A adrenoceptor (Homo sapiens, UniProt P08913); assay: Radioligand binding, α2A adrenergic receptor
T1 construct: expressed in transfected cells
T1 sequence (P08913 1-465): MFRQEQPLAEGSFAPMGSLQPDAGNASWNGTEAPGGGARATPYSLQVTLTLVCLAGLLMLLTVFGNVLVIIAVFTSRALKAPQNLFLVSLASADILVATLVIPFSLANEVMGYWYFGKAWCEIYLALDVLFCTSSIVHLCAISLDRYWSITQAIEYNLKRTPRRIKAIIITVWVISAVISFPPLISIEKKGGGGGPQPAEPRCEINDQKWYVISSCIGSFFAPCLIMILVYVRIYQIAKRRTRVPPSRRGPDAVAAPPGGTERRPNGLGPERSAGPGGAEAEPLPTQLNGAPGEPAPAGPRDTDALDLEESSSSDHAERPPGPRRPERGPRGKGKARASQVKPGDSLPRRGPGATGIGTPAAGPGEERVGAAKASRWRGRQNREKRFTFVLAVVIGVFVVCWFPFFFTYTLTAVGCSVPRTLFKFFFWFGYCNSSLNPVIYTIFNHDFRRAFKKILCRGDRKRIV
Source text: Other receptors: Cell membranes expressing human dopamine D1, D2, D4 and rat D3 receptors were purchased through BioSignal, Inc. (Montreal, Canada). Binding assays using the histamine H1 receptor; dopamine receptors; and α1A, α1E, and α2 adrenergic receptors may be carried out according to the procedures described in U.S. Patent No. 5,780,485, the disclosure of which is hereby incorporated by reference in its entirety into this application. Binding assays using the dopamine D5 receptor may be carried out according to the procedures described in U.S. Patent No. 5,882,855, the disclosure of which is hereby incorporated by reference in its entirety into this application. Binding assays for the human α1D adrenergic receptor may be carried out according to the procedures described in U.S. Patent No. 6,156,518, the disclosure of which is hereby incorporated by reference in its entirety into this application.
as §3

human GAL1 receptor = target: T2, human GAL1 receptor (Homo sapiens, UniProt P47211); assay: Radioligand binding at cloned human GAL1 receptor
T2 construct: expressed in transfected cells
T2 sequence (P47211 1-349): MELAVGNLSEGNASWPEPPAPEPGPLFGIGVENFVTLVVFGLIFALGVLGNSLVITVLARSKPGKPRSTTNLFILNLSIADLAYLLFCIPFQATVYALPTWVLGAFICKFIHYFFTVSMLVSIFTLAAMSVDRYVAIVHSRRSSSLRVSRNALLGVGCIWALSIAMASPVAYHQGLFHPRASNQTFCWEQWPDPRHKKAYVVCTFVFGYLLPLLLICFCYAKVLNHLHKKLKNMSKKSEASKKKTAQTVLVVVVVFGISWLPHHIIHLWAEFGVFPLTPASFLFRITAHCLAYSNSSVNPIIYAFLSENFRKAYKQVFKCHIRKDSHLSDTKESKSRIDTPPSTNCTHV
Protocol: The binding properties of the pyrimidines of the present invention were evaluated at the cloned human galanin receptors, GAL1, GAL2, and GAL3, using protocols described herein. […]
LM(tk-) cells were stably transfected with the human GAL1 or GAL3 receptor. CHO cells were stably transfected with the human GAL2 receptor.
cDNAs for the human and rat GAL1, and human and rat GAL3 receptors were transfected with a G-418 resistant gene into the mouse fibroblast LM(tk-) cell line by a calcium phosphate transfection method (Cullen, 1987). Stably transfected cells were selected with G-418. Human and rat GAL2 receptors were similarly transfected into CHO cells.
Membranes were harvested from stably transfected LM(tk-) cells. Adherent cells were washed twice in ice-cold phosphate buffered saline (138 mM NaCl, 8.1 mM Na2HPO4, 2.5 mM KCl, 1.2 mM KH2PO4, 0.9 mM CaCl2, 0.5 mM MgCl2, pH 7.4) and lysed by sonication in ice-cold sonication buffer (20 mM Tris-HCl, 5 mM EDTA, pH 7.7). Large particles and debris were cleared by low speed centrifugation (200 x g, 5 min, 4°C). Membranes were collected from the supernatant fraction by centrifugation (32,000 x g, 18 min, 4°C), washed with ice-cold hypotonic buffer, and collected again by centrifugation (32,000 x g, 18 min, 4°C). The final membrane pellet was resuspended by sonication into a small volume of ice-cold binding buffer (-1 ml for every 5 plates: 10 mM NaCl, 20 mM HEPES, 0.22 mM KH2PO4, 1.26 mM CaCl2, 0.81 mM MgSO4, pH 7.4). Protein concentration was measured by the Bradford method (Bradford, 1976) using Bio-Rad Reagent, with bovine serum albumin as a standard. Membranes were held on ice for up to one hour and used fresh, or flash frozen and stored in liquid nitrogen. Membranes were prepared similarly from CHO cells.
Galanin Recentors: Binding assays were performed according to the following published methods: human GAL3 (PCT International Publication No. WO 98/15570), human GAL1 (PCT International Publication No. WO 95/2260), human GAL2 (PCT International Publication No. WO 97/26853).
as §3

[1] = Table 7; native transporter, head prints r (rat); read-out: r5HT Uptk Ki
[2] = Table 8; Ki r5HT Uptk divided by Ki hGAL3
[3] = Table 7; native transporter, head prints r (rat); read-out: rDA Uptk Ki
[4] = Table 8; Ki rDA Uptk divided by Ki hGAL3
[5] = Table 10; Ki hα2A divided by Ki hGAL3
[6] = pyrimidines, read-out: Ki GalR1

Sequence of DA transporter (P23977 whole entry): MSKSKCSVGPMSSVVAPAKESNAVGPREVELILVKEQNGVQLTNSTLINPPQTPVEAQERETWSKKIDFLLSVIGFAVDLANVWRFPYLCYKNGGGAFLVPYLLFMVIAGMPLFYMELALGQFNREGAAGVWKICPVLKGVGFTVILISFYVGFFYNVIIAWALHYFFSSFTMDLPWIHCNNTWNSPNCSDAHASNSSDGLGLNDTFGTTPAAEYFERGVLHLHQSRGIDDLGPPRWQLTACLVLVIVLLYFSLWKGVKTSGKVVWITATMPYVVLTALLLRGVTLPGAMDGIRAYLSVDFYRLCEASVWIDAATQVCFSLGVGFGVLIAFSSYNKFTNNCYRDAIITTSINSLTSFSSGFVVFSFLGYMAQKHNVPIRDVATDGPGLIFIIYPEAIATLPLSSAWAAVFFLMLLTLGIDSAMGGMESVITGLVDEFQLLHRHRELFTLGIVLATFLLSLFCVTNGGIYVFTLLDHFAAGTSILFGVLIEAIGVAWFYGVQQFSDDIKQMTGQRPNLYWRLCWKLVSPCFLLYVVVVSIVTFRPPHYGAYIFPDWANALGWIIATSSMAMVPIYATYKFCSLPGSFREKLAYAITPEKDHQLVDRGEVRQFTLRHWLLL
Sequence of 5HT transporter (P31652 whole entry): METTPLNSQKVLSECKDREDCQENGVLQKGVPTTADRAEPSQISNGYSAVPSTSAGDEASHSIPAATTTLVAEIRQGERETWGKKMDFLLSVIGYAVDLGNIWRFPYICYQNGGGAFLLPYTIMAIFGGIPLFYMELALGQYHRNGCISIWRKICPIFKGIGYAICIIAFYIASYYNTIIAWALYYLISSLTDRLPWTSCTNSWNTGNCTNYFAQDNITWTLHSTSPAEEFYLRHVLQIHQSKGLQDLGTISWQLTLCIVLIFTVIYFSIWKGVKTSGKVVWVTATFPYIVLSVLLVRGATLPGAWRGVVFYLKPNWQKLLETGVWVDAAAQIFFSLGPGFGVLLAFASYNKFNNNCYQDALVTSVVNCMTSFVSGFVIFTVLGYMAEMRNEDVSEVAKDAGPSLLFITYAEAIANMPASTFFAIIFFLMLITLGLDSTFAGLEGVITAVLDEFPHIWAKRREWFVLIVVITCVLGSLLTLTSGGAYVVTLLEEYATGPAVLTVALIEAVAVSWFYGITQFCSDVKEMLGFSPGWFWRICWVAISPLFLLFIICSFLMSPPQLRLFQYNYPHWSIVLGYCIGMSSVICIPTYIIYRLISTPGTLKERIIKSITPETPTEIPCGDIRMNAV

Row | SMILES | Ki (5HT transporter; [1]) [µM] | selectivity ratio r5HT Uptk (5HT transporter; [2]) | Ki (DA transporter; [3]) [µM] | selectivity ratio rDA Uptk (DA transporter; [4]) | Ki (human α2A adrenoceptor; Table 9; read-out: hα2A Ki) [µM] | selectivity ratio hα2A (human α2A adrenoceptor; [5]) | Ki (human GAL1 receptor; [6]) [µM] | Ki (human GAL1 receptor; read-out: Ki GalR1, pyrimidines) [µM] | Ki (5HT transporter; read-out: r5HT Uptk Ki; Table 7; native transporter, head prints r (rat)) [µM] | Ki (DA transporter; read-out: rDA Uptk Ki; Table 7; native transporter, head prints r (rat)) [µM] | Ki (human α2A adrenoceptor; read-out: hα2A Ki; Table 9) [µM] | Ki (human GAL1 receptor; indolones, read-out: Ki GalR1) [µM]
1 | Cc1ccc(Nc2cc(N3CCCCC3)nc(N(C)CCc3c[nH]c4ccccc34)n2)cc1 [Example 11] | 1.59 | 18 | 5.43 | >30 | 1.82 | 20 |  |  |  |  |  | 
2 | CN(CCc1c[nH]c2ccccc12)c1nc(Nc2ccc(F)c(F)c2)cc(N2CCCCC2)n1 [Example 15] | 1.74 | 24 | 24.5 | >100 | 14.4 | >100 | 2.43 |  |  |  |  | 
3 | COc1cccc(Nc2cc(N3CCCCC3)nc(N(C)CCc3c[nH]c4ccccc34)n2)c1 [Example 17] | 0.719 | 8 | 27.2 | >100 | 3.52 | >30 |  |  |  |  |  | 
4 | Cc1ccc(Nc2cc(N3CCCCC3)nc(N(C)CCc3ccccc3)n2)cc1 [Example 22] | 8.48 | >100 | 7.48 | >100 | 0.906 | >30 | 0.442 |  |  |  |  | 
5 | Cc1ccc(Nc2cc(N3CCCCC3)nc(N3CCN(c4ncccc4C(F)(F)F)CC3)n2)cc1 [Example 34] | 37.5 | >100 | 3.9 | >100 | 3.68 | >100 | 0.912 |  |  |  |  | 
6 | COC[C@@H]1[C@@H](c2ccccc2)OCCN1c1nc(Nc2ccc(C)cc2)cc(N2CCCCC2)n1 [Example 49] |  | >100 |  | 10 |  | 22 |  | > 5 | 40.7 | 2.01 | 4.73 | 
7 | CN(C)c1cc(Nc2ccc(Cl)c(Cl)c2)nc(Nc2ccccc2)n1 [Example 60] | 25.3 | >100 | 14.5 | >100 | 10.8 | >100 | > 5 |  |  |  |  | 
8 | Cc1ccc(Nc2cc(N(C)C)nc(N(C)CCc3c[nH]c4ccccc34)n2)cc1 [Example 77] | 0.821 | 10 | 2.79 | >30 | 0.315 | 4 | 3.8 |  |  |  |  | 
9 | O=C1C(=Nc2cccc(C(F)(F)F)c2)c2ccccc2N1c1ccccc1 [Example 92, 1-PHENYL-3- [[3-(TRIFLUOROMETHYL)PHENYL]IMINO]-1,3-DIHYDRO-2H-INDOL-2-ONE] |  | >100 |  | >100 |  | >100 |  |  |  |  |  | 
10 | O=C1C(=Nc2cccc(Cl)c2)c2ccccc2N1c1ccccc1 [Example 94, 3-[(3-CHLOROPHENYL)IMINO]-1-PHENYL-1,3-DIHYDRO-2H-INDOL-2-ONE] | 13 | >100 | 2.2 | >130 | 12.7 | >100 |  |  |  |  |  | > 10
11 | O=C1C(=Nc2ccc(C(F)(F)F)cc2)c2ccccc2N1c1ccccc1 [Example 95, 1-PHENYL-3-[[4-(TRIFLUOROMETHYL)PHENYL]IMINO]-1,3-DIHYDRO-2H-INDOL-2-ONE] | > 50 | >100 | 12 | >100 | 30.1 | >100 |  |  |  |  |  | > 10
12 | O=C1C(=Nc2ccc(Cl)cc2)c2ccccc2N1c1ccccc1 [Example 97, 3-[(4-CHLOROPHENYL)IMINO]-1-PHENYL-1,3-DIHYDRO-2H-INDOL-2-ONE] | 36.3 | >100 | 8.44 | >100 | 13.6 | >100 |  |  |  |  |  | > 10
13 | O=C1C(=Nc2ccc(Br)cc2)c2ccccc2N1c1ccccc1 [Example 98, 3-[(4-BROMOPHENYL)IMINO]-1-PHENYL-1,3-DIHYDRO-2H-INDOL-2-ONE] | 36.3 | >100 | 7.43 | >100 | 23.2 | >100 |  |  |  |  |  | > 10
14 | O=C1C(=Nc2cc(Cl)cc(Cl)c2)c2ccccc2N1c1ccccc1 [Example 103, 3-[(3,5-DICHLOROPHENYL)IMINO]-1-PHENYL-1,3-DIHYDRO-2H-INDOL-2-ONE] |  |  |  |  |  |  |  |  |  |  |  | > 10
